Laboratory results: US10597388B2, “Pyridazinone herbicides” (FMC CORPORATION, priority 2014, dated 2020)

Key:
Format in all cases: in vivo
[1] = tested on: beggarticks (hairy beggarticks, Bidens pilosa); test: Test E greenhouse herbicide test, pre- and postemergence; conditions: Postemergence
Summary of the method: (§1)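 Seedlings reaching 2–18 cm (1- to 4-leaf stage) received foliar treatment, while seeds in silt loam received a soil surface spray; the vehicle in each case was a non-phytotoxic solvent mixture including surfactant. Visual scoring versus controls followed 14–21 d later on a 0–100 scale.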

[2] = tested on: dayflower (Virginia (VA) dayflower, Commelina virginica); test: as above; conditions: Postemergence
Summary of the method: as §1

[3] = tested on: field bindweed (Convolvulus arvensis); test: as above; conditions: Postemergence
Summary of the method: as §1

[4] = tested on: pigweed, palmer (palmer pigweed, Amaranthus palmeri); test: as above; conditions: Postemergence
Summary of the method: as §1

[5] = tested on: ragweed (common ragweed, Ambrosia elatior); test: as above; conditions: Postemergence
Summary of the method: as §1

[6] = tested on: soybean (Glycine max); test: as above; conditions: Postemergence
Summary of the method: as §1

[7] = tested on: waterhemp (common waterhemp, Amaranthus rudis); test: as above; conditions: Postemergence
Summary of the method: as §1

[8] = tested on: waterhemp_RES1 (ALS & Triazine resistant common waterhemp, Amaranthus rudis); test: Test E greenhouse herbicide test, postemergence
Protocol: (§2) At the same time, plants from these crop and weed species and also waterhemp_RES1, (ALS & Triazine resistant common waterhemp, Amaranthus rudis), and waterhemp_RES2, (ALS & HPPD resistant common waterhemp, Amaranthus rudis) were planted in pots containing Redi-Earth® planting medium (Scotts Company, 14111 Scottslawn Road, Marysville, Ohio 43041) comprising spaghnum peat moss, vermiculite, wetting agent and starter nutrients were treated with postemergence applications of test chemicals formulated in the same manner. Plants ranged in height from 2 to 18 cm for postemergence treatments (1- to 4-leaf stage). Treated plants and controls were maintained in a greenhouse for 14 to 21 d, after which time all species were compared to controls and visually evaluated. Plant response ratings, summarized in Table E, are based on a scale of 0 to 100 where 0 is no effect and 100 is complete control. A dash (-) response means no test result.

[9] = tested on: waterhemp_RES2 (ALS & HPPD resistant common waterhemp, Amaranthus rudis); test: Test E greenhouse herbicide test, postemergence
Protocol: as §2

[10] = 62 g ai/ha, scale 0 to 100 (0 no effect, 100 complete control)
[11] = 125 g ai/ha, scale 0 to 100 (0 no effect, 100 complete control)
[12] = 250 g ai/ha, scale 0 to 100 (0 no effect, 100 complete control)
[13] = 31 g ai/ha, visual, scale 0 no effect to 100 complete control
[14] = 16 g ai/ha, visual, scale 0 no effect to 100 complete control

## CCC(=O)Oc1c(C)nn(C)c(=O)c1-c1c(C)sc2ccc(C)cc12 [Compound 42]
[1]; [10]
  Plant response rating, Beggarticks: 95
[1]; [11]
  Plant response rating, Beggarticks: 100
[1]; [12]
  Plant response rating, Beggarticks: 100
[1]; [13]
  Plant response rating, Beggarticks: 95
[2]; [10]
  Plant response rating, Dayflower, VA: 50
[2]; [11]
  Plant response rating, Dayflower, VA: 60
[2]; [12]
  Plant response rating, Dayflower, VA: 70
[2]; [13]
  Plant response rating, Dayflower, VA: 30
[3]; [10]
  Plant response rating, Field Bindweed: 85
[3]; [11]
  Plant response rating, Field Bindweed: 90
[3]; [12]
  Plant response rating, Field Bindweed: 90
[3]; [13]
  Plant response rating, Field Bindweed: 90
[4]; [10]
  Plant response rating, Pigweed, Palmer: 75
[4]; [11]
  Plant response rating, Pigweed, Palmer: 60
[4]; [12]
  Plant response rating, Pigweed, Palmer: 95
[4]; [13]
  Plant response rating, Pigweed, Palmer: 70
[5]; [10]
  Plant response rating, Ragweed: 85
[5]; [11]
  Plant response rating, Ragweed: 95
[5]; [12]
  Plant response rating, Ragweed: 90
[5]; [13]
  Plant response rating, Ragweed: 90
[6]; [10]
  Plant response rating, Soybean: 20
[6]; [11]
  Plant response rating, Soybean: 30
[6]; [12]
  Plant response rating, Soybean: 50
[6]; [13]
  Plant response rating, Soybean: 10
[7]; [10]
  Plant response rating, Waterhemp: 80
[7]; [11]
  Plant response rating, Waterhemp: 100
[7]; [12]
  Plant response rating, Waterhemp: 90
[7]; [13]
  Plant response rating, Waterhemp: 75
[8]; [13]
  Plant response rating, Waterhemp_RES1: 75
[8]; [10]
  Plant response rating, Waterhemp_RES1: 75
[8]; [11]
  Plant response rating, Waterhemp_RES1: 70
[8]; [12]
  Plant response rating, Waterhemp_RES1: 98
[9]; [13]
  Plant response rating, Waterhemp_RES2: 60
[9]; [10]
  Plant response rating, Waterhemp_RES2: 65
[9]; [11]
  Plant response rating, Waterhemp_RES2: 70
[9]; [12]
  Plant response rating, Waterhemp_RES2: 80

## CC(=O)Oc1c(C)nn(C)c(=O)c1-c1ccc(F)c2ccccc12 [Compound 90]
[1]; [10]
  Plant response rating, Beggarticks: 98
[1]; [11]
  Plant response rating, Beggarticks: 100
[1]; [14]
  Plant response rating, Beggarticks: 85
[1]; [13]
  Plant response rating, Beggarticks: 90
[2]; [10]
  Plant response rating, Dayflower, VA: 80
[2]; [11]
  Plant response rating, Dayflower, VA: 90
[2]; [14]
  Plant response rating, Dayflower, VA: 40
[2]; [13]
  Plant response rating, Dayflower, VA: 60
[3]; [10]
  Plant response rating, Field Bindweed: 90
[3]; [11]
  Plant response rating, Field Bindweed: 100
[3]; [14]
  Plant response rating, Field Bindweed: 60
[3]; [13]
  Plant response rating, Field Bindweed: 80
[4]; [10]
  Plant response rating, Pigweed, Palmer: 50
[4]; [11]
  Plant response rating, Pigweed, Palmer: 60
[4]; [14]
  Plant response rating, Pigweed, Palmer: 40
[4]; [13]
  Plant response rating, Pigweed, Palmer: 65
[5]; [10]
  Plant response rating, Ragweed: 80
[5]; [11]
  Plant response rating, Ragweed: 90
[5]; [14]
  Plant response rating, Ragweed: 50
[5]; [13]
  Plant response rating, Ragweed: 75
[6]; [11]
  Plant response rating, Soybean: 60
[6]; [14]
  Plant response rating, Soybean: 20
[6]; [13]
  Plant response rating, Soybean: 30
[7]; [11]
  Plant response rating, Waterhemp: 90
[7]; [14]
  Plant response rating, Waterhemp: 50
[7]; [13]
  Plant response rating, Waterhemp: 70
[8]; [14]
  Plant response rating, Waterhemp_RES1: 50
[8]; [13]
  Plant response rating, Waterhemp_RES1: 50
[8]; [11]
  Plant response rating, Waterhemp_RES1: 80
[9]; [14]
  Plant response rating, Waterhemp_RES2: 50
[9]; [13]
  Plant response rating, Waterhemp_RES2: 50
[9]; [11]
  Plant response rating, Waterhemp_RES2: 70

## COc1nn(C)c(=O)c(-c2c(C)sc3ccc(Cl)cc23)c1O [Compound 100]
[1]; [10]
  Plant response rating, Beggarticks: 80
[1]; [11]
  Plant response rating, Beggarticks: 90
[1]; [12]
  Plant response rating, Beggarticks: 100
[1]; [13]
  Plant response rating, Beggarticks: 75
[2]; [10]
  Plant response rating, Dayflower, VA: 0
[2]; [11]
  Plant response rating, Dayflower, VA: 0
[2]; [12]
  Plant response rating, Dayflower, VA: 0
[2]; [13]
  Plant response rating, Dayflower, VA: 0
[3]; [10]
  Plant response rating, Field Bindweed: 80
[3]; [11]
  Plant response rating, Field Bindweed: 90
[3]; [12]
  Plant response rating, Field Bindweed: 95
[3]; [13]
  Plant response rating, Field Bindweed: 75
[4]; [10]
  Plant response rating, Pigweed, Palmer: 30
[4]; [11]
  Plant response rating, Pigweed, Palmer: 40
[4]; [12]
  Plant response rating, Pigweed, Palmer: 50
[4]; [13]
  Plant response rating, Pigweed, Palmer: 20
[5]; [10]
  Plant response rating, Ragweed: 85
[5]; [11]
  Plant response rating, Ragweed: 90
[5]; [12]
  Plant response rating, Ragweed: 90
[5]; [13]
  Plant response rating, Ragweed: 75
[6]; [11]
  Plant response rating, Soybean: 0
[6]; [12]
  Plant response rating, Soybean: 0
[6]; [13]
  Plant response rating, Soybean: 0
[7]; [12]
  Plant response rating, Waterhemp: 90
[7]; [13]
  Plant response rating, Waterhemp: 80
[8]; [13]
  Plant response rating, Waterhemp_RES1: 80
[8]; [11]
  Plant response rating, Waterhemp_RES1: 85
[8]; [12]
  Plant response rating, Waterhemp_RES1: 90
[9]; [13]
  Plant response rating, Waterhemp_RES2: 50
[9]; [11]
  Plant response rating, Waterhemp_RES2: 65
[9]; [12]
  Plant response rating, Waterhemp_RES2: 70

## CSCC(=O)Oc1c(C)nn(C)c(=O)c1-c1cccc2ccccc12 [Compound 171]
[1]; [10]
  Plant response rating, Beggarticks: 95
[1]; [11]
  Plant response rating, Beggarticks: 100
[1]; [12]
  Plant response rating, Beggarticks: 100
[1]; [13]
  Plant response rating, Beggarticks: 80
[2]; [10]
  Plant response rating, Dayflower, VA: 50
[2]; [11]
  Plant response rating, Dayflower, VA: 70
[2]; [12]
  Plant response rating, Dayflower, VA: 90
[2]; [13]
  Plant response rating, Dayflower, VA: 40
[3]; [10]
  Plant response rating, Field Bindweed: 85
[3]; [11]
  Plant response rating, Field Bindweed: 100
[3]; [12]
  Plant response rating, Field Bindweed: 100
[3]; [13]
  Plant response rating, Field Bindweed: 70
[4]; [10]
  Plant response rating, Pigweed, Palmer: 50
[4]; [11]
  Plant response rating, Pigweed, Palmer: 60
[4]; [12]
  Plant response rating, Pigweed, Palmer: 70
[4]; [13]
  Plant response rating, Pigweed, Palmer: 50
[5]; [10]
  Plant response rating, Ragweed: 75
[5]; [11]
  Plant response rating, Ragweed: 90
[5]; [12]
  Plant response rating, Ragweed: 98
[5]; [13]
  Plant response rating, Ragweed: 60
[6]; [11]
  Plant response rating, Soybean: 50
[6]; [12]
  Plant response rating, Soybean: 70
[6]; [13]
  Plant response rating, Soybean: 40
[7]; [11]
  Plant response rating, Waterhemp: 85
[7]; [12]
  Plant response rating, Waterhemp: 90
[7]; [13]
  Plant response rating, Waterhemp: 80
[8]; [13]
  Plant response rating, Waterhemp_RES1: 50
[8]; [11]
  Plant response rating, Waterhemp_RES1: 75
[8]; [12]
  Plant response rating, Waterhemp_RES1: 90
[9]; [13]
  Plant response rating, Waterhemp_RES2: 15
[9]; [11]
  Plant response rating, Waterhemp_RES2: 40
[9]; [12]
  Plant response rating, Waterhemp_RES2: 60
